The text below walks through data of US20090304692A1, “TRIAZINE COMPOUNDS AS PI3 KINASE AND MTOR INHIBITORS” (Wyeth, priority 2008, published 2009).

For one assay, the target named is Human mTOR (FLAG-TOR) (Homo sapiens, UniProt P42345). Kind of assay: mTOR kinase assay (DELFIA format, purified enzyme). As to conditions: read-out: IC50 mTOR. Type of assay: biochemical.
The target in the next assay is PI3K-α (Homo sapiens, UniProt P42336). The experiment in a line: PI3K-alpha fluorescence polarization assay. As to conditions: read-out: IC50 PI3Kα. Background: Polarisation of emitted light reports the rotation of a fluorescent probe.
In another assay the target is PI3K-γ (Homo sapiens, UniProt P48736). Kind of assay: PI3K-gamma fluorescence polarization assay.

One may read the IC50 as the midpoint of a concentration-inhibition curve.

Values joined by “and” are separate entries in the source; they are usually repeats but may differ in a detail not shown here. Equal entries are not always repeated. Where two headings read alike, the source gives them in different places.

Sequence of PI3K-γ (P48736 whole entry, species assumed): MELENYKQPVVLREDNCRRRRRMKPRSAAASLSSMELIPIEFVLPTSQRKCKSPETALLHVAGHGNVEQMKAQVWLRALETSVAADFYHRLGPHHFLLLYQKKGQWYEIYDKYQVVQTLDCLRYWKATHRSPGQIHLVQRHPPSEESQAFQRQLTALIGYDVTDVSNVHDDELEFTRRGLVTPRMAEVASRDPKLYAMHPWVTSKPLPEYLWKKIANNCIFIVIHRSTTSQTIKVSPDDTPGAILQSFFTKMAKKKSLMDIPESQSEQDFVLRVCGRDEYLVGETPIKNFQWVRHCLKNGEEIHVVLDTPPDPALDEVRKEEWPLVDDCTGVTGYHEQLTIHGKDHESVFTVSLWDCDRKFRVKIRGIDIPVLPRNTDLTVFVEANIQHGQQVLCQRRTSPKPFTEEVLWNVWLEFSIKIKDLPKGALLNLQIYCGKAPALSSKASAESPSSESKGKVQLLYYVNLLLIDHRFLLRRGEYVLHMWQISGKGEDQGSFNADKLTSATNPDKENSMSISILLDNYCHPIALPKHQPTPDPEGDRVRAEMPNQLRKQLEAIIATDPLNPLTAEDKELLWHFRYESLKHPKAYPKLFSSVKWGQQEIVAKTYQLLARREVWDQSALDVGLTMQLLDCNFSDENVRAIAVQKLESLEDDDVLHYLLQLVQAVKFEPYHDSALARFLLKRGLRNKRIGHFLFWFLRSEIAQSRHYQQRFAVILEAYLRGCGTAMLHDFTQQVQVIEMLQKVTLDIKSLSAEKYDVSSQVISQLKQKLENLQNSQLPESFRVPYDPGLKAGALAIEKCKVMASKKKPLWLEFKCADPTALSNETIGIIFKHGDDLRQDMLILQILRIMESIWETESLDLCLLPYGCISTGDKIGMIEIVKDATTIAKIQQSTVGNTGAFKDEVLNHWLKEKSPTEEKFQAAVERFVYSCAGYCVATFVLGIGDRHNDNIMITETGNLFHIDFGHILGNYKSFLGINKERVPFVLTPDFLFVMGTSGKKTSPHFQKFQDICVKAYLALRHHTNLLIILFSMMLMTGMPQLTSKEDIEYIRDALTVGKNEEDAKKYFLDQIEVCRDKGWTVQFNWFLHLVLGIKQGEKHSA
Sequence of PI3K-α (P42336 whole entry, species assumed): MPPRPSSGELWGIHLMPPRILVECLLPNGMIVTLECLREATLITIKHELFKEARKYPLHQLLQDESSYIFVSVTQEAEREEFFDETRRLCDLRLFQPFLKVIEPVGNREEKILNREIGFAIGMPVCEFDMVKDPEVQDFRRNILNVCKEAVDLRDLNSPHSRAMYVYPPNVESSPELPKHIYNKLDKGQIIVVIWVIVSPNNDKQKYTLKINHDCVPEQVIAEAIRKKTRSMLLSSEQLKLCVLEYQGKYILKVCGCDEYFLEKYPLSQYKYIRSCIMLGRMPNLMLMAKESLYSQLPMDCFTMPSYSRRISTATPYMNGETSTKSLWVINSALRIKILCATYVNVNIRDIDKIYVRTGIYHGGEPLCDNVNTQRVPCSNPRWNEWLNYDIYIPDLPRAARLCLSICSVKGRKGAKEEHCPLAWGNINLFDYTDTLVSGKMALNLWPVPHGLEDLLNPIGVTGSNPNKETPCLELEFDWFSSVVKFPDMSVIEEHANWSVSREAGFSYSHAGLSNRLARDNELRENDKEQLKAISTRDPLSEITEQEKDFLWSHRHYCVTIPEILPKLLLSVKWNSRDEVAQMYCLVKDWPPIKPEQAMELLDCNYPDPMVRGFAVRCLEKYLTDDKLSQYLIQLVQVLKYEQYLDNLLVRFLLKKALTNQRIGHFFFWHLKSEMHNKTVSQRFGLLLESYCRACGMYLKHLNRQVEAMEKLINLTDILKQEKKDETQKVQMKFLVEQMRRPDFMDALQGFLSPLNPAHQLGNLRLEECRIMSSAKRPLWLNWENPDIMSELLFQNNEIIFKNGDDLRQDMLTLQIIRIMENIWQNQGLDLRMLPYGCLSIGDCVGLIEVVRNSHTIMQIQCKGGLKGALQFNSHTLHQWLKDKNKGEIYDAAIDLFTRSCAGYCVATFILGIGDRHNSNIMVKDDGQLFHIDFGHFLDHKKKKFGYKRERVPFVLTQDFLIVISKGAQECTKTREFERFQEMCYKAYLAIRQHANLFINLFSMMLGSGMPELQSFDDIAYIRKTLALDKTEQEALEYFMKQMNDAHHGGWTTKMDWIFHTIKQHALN
Sequence of PI3K-α (P27986 whole entry partner, species assumed): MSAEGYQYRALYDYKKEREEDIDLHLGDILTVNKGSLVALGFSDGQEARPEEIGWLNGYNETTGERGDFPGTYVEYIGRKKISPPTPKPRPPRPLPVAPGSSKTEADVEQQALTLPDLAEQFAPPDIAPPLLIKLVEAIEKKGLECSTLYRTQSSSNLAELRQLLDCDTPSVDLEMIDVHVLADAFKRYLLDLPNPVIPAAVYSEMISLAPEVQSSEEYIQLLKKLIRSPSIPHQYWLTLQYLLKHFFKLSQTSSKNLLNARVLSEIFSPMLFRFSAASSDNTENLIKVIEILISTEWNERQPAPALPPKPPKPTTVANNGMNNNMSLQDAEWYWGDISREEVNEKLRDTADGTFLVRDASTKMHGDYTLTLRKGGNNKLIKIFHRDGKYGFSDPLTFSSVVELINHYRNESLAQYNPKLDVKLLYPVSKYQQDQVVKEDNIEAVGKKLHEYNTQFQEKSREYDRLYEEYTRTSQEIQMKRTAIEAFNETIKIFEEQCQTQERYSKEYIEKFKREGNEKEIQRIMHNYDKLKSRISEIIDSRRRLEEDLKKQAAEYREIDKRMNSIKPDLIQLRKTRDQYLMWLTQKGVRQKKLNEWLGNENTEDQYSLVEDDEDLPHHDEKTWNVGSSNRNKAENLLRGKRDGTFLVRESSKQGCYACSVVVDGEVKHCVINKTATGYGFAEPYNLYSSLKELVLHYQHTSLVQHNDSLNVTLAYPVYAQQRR
Sequence of Human mTOR (FLAG-TOR) (P42345 1360-2549 limits assumed): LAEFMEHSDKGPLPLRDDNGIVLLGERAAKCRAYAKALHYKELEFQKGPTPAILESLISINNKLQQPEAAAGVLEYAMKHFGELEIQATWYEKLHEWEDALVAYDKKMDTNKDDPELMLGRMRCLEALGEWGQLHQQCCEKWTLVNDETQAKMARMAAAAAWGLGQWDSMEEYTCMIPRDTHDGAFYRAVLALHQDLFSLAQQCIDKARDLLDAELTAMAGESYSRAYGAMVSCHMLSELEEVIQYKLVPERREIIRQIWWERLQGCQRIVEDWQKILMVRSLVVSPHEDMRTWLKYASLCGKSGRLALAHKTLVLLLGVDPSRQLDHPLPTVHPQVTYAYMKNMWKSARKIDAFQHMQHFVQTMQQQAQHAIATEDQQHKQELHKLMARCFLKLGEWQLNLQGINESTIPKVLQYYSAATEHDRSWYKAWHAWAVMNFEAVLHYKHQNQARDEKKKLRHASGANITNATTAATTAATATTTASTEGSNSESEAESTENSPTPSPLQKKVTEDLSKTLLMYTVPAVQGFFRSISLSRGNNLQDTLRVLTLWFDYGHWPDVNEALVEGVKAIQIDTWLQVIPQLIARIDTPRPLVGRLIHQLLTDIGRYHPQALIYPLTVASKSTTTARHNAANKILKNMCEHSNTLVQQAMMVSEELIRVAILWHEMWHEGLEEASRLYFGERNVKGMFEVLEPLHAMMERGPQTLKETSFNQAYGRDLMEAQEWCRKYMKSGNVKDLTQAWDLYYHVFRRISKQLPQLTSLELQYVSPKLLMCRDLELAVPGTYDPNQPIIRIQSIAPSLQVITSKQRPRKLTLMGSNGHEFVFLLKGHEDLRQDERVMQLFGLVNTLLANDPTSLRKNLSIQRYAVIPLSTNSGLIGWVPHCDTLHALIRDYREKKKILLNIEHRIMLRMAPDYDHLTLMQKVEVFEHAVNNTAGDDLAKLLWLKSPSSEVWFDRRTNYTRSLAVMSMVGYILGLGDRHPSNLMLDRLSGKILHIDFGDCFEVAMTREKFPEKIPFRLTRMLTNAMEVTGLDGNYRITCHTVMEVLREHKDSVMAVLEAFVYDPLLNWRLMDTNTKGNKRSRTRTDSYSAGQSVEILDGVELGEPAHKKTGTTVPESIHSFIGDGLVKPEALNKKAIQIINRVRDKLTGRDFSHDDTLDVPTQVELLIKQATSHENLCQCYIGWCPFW

Regarding `Nc1ccc(-c2nc(N3CCOCC3)nc(N3CCC4(CC3)OCCO4)n2)cc1` [Example 129, 4-[4-(1,4-dioxa-8-azaspiro[4.5]dec-8-yl)-6-morpholin-4-yl-1,3,5-triazin-2-yl]aniline], the IC50 is 2350 nM on Human mTOR (FLAG-TOR), 7220 nM at PI3K-α and > 10000 nM against PI3K-γ.

Regarding `COC(=O)c1ccc(NC(=O)Nc2ccc(-c3nc(C)nc(N4CCOCC4)n3)cc2)cc1` [Example 162, methyl 4-({[4-(4-methyl-6-morpholin-4-yl-1,3,5-triazin-2-yl)phenyl]carbamoyl}amino)benzoate], the 50% inhibitory concentration (IC50) was determined as 23 nM on Human mTOR (FLAG-TOR), 10 nM on PI3K-α and 495 nM at PI3K-γ (read-out: IC50 PI3Kγ).

Take `CN(C)CCN1CCN(C(=O)c2ccc(NC(=O)Nc3ccc(-c4nc(N5CCOCC5)nc(N5CCOCC5)n4)cc3)cc2)CC1` [Example 168, 1-[4-({4-[2-(dimethylamino)ethyl]piperazin-1-yl}carbonyl)phenyl]-3-[4-(4,6-dimorpholin-4-yl-1,3,5-triazin-2-yl)phenyl]urea]: the results for the IC50 at Human mTOR (FLAG-TOR), on PI3K-α and at PI3K-γ (read-out: IC50 PI3Kγ) were 3.6 nM, 1 nM and 3 nM, respectively.

Take `CCCCc1nc(-c2ccc(NC(=O)Nc3ccc(C(=O)OC)cc3)cc2)nc(N2CCOCC2)n1` [Example 188, methyl 4-({[4-(4-butyl-6-morpholin-4-yl-1,3,5-triazin-2-yl)phenyl]carbamoyl}amino)benzoate]: the figures for the IC50 on Human mTOR (FLAG-TOR), on PI3K-α and on PI3K-γ (read-out: IC50 PI3Kγ) were 11 nM, 7540 nM and 2380 nM, respectively.

For `CCc1nc(-c2ccc(NC(=O)Nc3ccc(C(=O)OC)cc3)cc2)nc(N2CCOCC2)n1` [Example 225, methyl 4-({[4-(4-ethyl-6-morpholin-4-yl-1,3,5-triazin-2-yl)phenyl]carbamoyl}amino)benzoate], the IC50 on Human mTOR (FLAG-TOR) worked out at 47 nM; on PI3K-α, 109 nM; on PI3K-γ (read-out: IC50 PI3Kγ), 388 nM.

As to `COC(=O)c1ccc(NC(=O)Nc2ccc(-c3nc(C4=CCOCC4)nc(N4CCOCC4)n3)cc2)cc1` [Example 226, methyl 4-[({4-[4-(3,6-dihydro-2H-pyran-4-yl)-6-morpholin-4-yl-1,3,5-triazin-2-yl]phenyl}carbamoyl)amino]benzoate], the IC50 worked out at 62 nM at Human mTOR (FLAG-TOR), 75 nM on PI3K-α and 294 nM at PI3K-γ (read-out: IC50 PI3Kγ).

With `CCCCc1nc(-c2ccc(NC(=O)Nc3ccc(CN4CCN(C)CC4)cc3)cc2)nc(N2CCOCC2)n1` [Example 254, 1-[4-(4-butyl-6-morpholin-4-yl-1,3,5-triazin-2-yl)phenyl]-3-{4-[(4-methylpiperazin-1-yl)methyl]phenyl}urea], the IC50 is 17 nM on Human mTOR (FLAG-TOR), 63 nM at PI3K-α and 253 nM on PI3K-γ (read-out: IC50 PI3Kγ).

Regarding `CC(C)(C)OC(=O)N1CC2CN(c3nc(-c4ccc(NC(=O)Nc5ccncc5)cc4)nc(N4CCOCC4)n3)CC(C1)O2` [Example 281, tert-butyl-7-(4-morpholin-4-yl-6-{4-[(pyridin-4-ylcarbamoyl)amino]phenyl}-1,3,5-triazin-2-yl)-9-oxa-3,7-diazabicyclo[3.3.1]nonane-3-carboxylate], the IC50 on Human mTOR (FLAG-TOR) is 2800 nM; on PI3K-α, 2190 nM; on PI3K-γ (read-out: IC50 PI3Kγ), 4980 nM.

With `O=C(Nc1ccncc1)Nc1ccc(-c2nc(N3CCOCC3)nc(N3CC4CNCC(C3)O4)n2)cc1` [Example 290, 1-{4-[4-morpholin-4-yl-6-(9-oxa-3,7-diazabicyclo[3.3.1]non-3-yl)-1,3,5-triazin-2-yl]phenyl}-3-pyridin-4-ylurea], the IC50 was 150 nM and 145 nM on Human mTOR (FLAG-TOR); 97 nM on PI3K-α; 166 nM on PI3K-γ (read-out: IC50 PI3Kγ).

Take `CN1CC2CN(c3nc(-c4ccc(NC(=O)Nc5ccncc5)cc4)nc(N4CCOCC4)n3)CC(C1)O2` [Example 291, 1-{4-[4-(7-methyl-9-oxa-3,7-diazabicyclo[3.3.1]non-3-yl)-6-morpholin-4-yl-1,3,5-triazin-2-yl]phenyl}-3-pyridin-4-ylurea]: the IC50 was 190 nM at Human mTOR (FLAG-TOR), 368 nM on PI3K-α and 711 nM on PI3K-γ (read-out: IC50 PI3Kγ).

With `CC(=O)N1CC2CN(c3nc(-c4ccc(NC(=O)Nc5ccncc5)cc4)nc(N4CCOCC4)n3)CC(C1)O2` [Example 292, 1-{4-[4-(7-acetyl-9-oxa-3,7-diazabicyclo[3.3.1]non-3-yl)-6-morpholin-4-yl-1,3,5-triazin-2-yl]phenyl}-3-pyridin-4-ylurea], the half-maximal inhibitory concentration (IC50) on Human mTOR (FLAG-TOR) is 70 nM and 68 nM; at PI3K-α it was 1500 nM; on PI3K-γ (read-out: IC50 PI3Kγ), 3690 nM.

With `CS(=O)(=O)N1CC2CN(c3nc(-c4ccc(NC(=O)Nc5ccncc5)cc4)nc(N4CCOCC4)n3)CC(C1)O2` [Example 293, 1-(4-{4-[7-(methylsulfonyl)-9-oxa-3,7-diazabicyclo[3.3.1]non-3-yl]-6-morpholin-4-yl-1,3,5-triazin-2-yl}phenyl)-3-pyridin-4-yl urea], the IC50 at Human mTOR (FLAG-TOR) was 500 nM and 470 nM; at PI3K-α, 764 nM; at PI3K-γ (read-out: IC50 PI3Kγ), 533 nM.

In the case of `Cc1ccc(-c2nc(-c3ccc(NC(=O)Nc4ccc(N5CCC(N(C)C)CC5)cc4)cc3)nc(N3CCOCC3)n2)cc1` [Example 339, 1-{4-[4-(dimethylamino)piperidin-1-yl]phenyl}-3-{4-[4-(4-methylphenyl)-6-morpholin-4-yl-1,3,5-triazin-2-yl]phenyl}urea], the IC50 at Human mTOR (FLAG-TOR) is 90 nM and 80 nM; at PI3K-α, 71 nM; on PI3K-α (listed as 531), 71.5 nM; at PI3K-γ (read-out: IC50 PI3Kγ), 485 nM; at PI3K-γ (read-out: IC50 PI3Kγ, listed as 531), 484 nM.

Take `Cc1ccc(-c2nc(-c3ccc(NC(=O)Nc4ccncc4)cc3)nc(N3CCOCC3)n2)cc1` [Example 340, 1-{4-[4-(4-methylphenyl)-6-morpholin-4-yl-1,3,5-triazin-2-yl]phenyl}-3-pyridin-4-ylurea]: the concentration for half-maximal inhibition (IC50) at Human mTOR (FLAG-TOR) was 46 nM and 49.5 nM; at PI3K-α it was 92 nM; at PI3K-γ (read-out: IC50 PI3Kγ), 706 nM; on PI3K-γ (read-out: IC50 PI3Kγ, listed as 530) it was 706 nM.

Regarding `Cc1ccc(-c2nc(-c3ccc(NC(=O)Nc4ccc(N5CCN(C)CC5)cc4)cc3)nc(N3CCOCC3)n2)cc1` [Example 343, 1-{4-[4-(4-methylphenyl)-6-morpholin-4-yl-1,3,5-triazin-2-yl]phenyl}-3-[4-(4-methylpiperazin-1-yl)phenyl]urea], the concentration for half-maximal inhibition (IC50) on Human mTOR (FLAG-TOR) is 40 nM and 47.5 nM; on PI3K-α it was 97 nM; at PI3K-α (listed as 526) it was 96.5 nM; at PI3K-γ (read-out: IC50 PI3Kγ) it was 6700 nM; on PI3K-γ (read-out: IC50 PI3Kγ, listed as 526), 6700 nM.

`COC(=O)c1ccc(NC(=O)Nc2ccc(-c3nc(-c4ccc(C)cc4)nc(N4CCOCC4)n3)cc2)cc1` [Example 344, methyl 4-[({4-[4-(4-methylphenyl)-6-morpholin-4-yl-1,3,5-triazin-2-yl]phenyl}carbamoyl)amino]benzoate]: the IC50 was 1500 nM and 1600 nM on Human mTOR (FLAG-TOR); 1610 nM at PI3K-α; 1610 nM at PI3K-α (listed as 528); 4140 nM at PI3K-γ (read-out: IC50 PI3Kγ).

As to `C[C@@H]1COCCN1c1nc(-c2ccc(NC(=O)Nc3ccncc3)cc2)nc(N2CCOC[C@H]2C)n1` [Example 397, 1-(4-(4,6-bis((R)-3-methylmorpholino)-1,3,5-triazin-2-yl)phenyl)-3-(pyridin-4-yl)urea], the figures for the IC50 at Human mTOR (FLAG-TOR), at PI3K-α and at PI3K-γ (read-out: IC50 PI3Kγ) were 0.16 nM, 173 nM and 2070 nM, respectively.

For the compound `C[C@@H]1COCCN1c1nc(-c2ccc(NC(=O)Nc3cccnc3)cc2)nc(C2CCOCC2)n1` [Example 420, (R)-1-(4-(4-(3-methylmorpholino)-6-(tetrahydro-2H-pyran-4-yl)-1,3,5-triazin-2-yl)phenyl)-3-(pyridin-3-yl)urea], the IC50 at Human mTOR (FLAG-TOR) worked out at 0.63 nM; on PI3K-α it was 593 nM; at PI3K-γ (read-out: IC50 PI3Kγ), 4360 nM.
